Row | SMILES | melting point [°C]
1 | N#CCN1C(=O)N(c2ccc(C#N)c(C(F)(F)F)c2)C(=O)C1(CF)CF | 125
2 | O=C(c1cccc(O)c1)c1nn(C2CCCC2)c2c(C(F)(F)F)cccc12 | 152
3 | CN1c2ccccc2NC(=O)c2cccnc21 | 235 to 237
4 | C=CCN(C=CC=C(C#N)C#N)CC=C | 50 to 52
5 | CCCC1=C(C(=O)OCC)C(c2cccc([N+](=O)[O-])c2)C(C(=O)OCC)=C(C)N1COCC (stereo not drawn) | 97
6 | CC(=O)c1cc2c(c(C=O)c1O)CCCC2 | 77.5 to 78.5
7 | OCCn1cnc2c(O)nc3ccccc3c21 | > 300
8 | COc1cccc(-c2ccc3ccc(N)nc3n2)c1 | 270 to 275
9 | COC(=O)c1cccnc1SCc1cccc(OC)c1 | 69 to 70
10 | O=C(NNC(=O)c1occc1-c1cccc(OCc2ccccc2)c1)c1ccc(O)c([N+](=O)[O-])c1 | 171 to 173
11 | NNc1c(F)cc(F)c(F)c1F | 63 to 65
12 | CCc1ccc2c(c1)c(-c1ccccc1Cl)c(C(=O)O)c(=O)n2C | 200 to 201
13 | N#CN=C(N)Cc1ccc2c(c1)Nc1nccnc1S2 | 218 to 219
14 | Cc1cc(C(=O)Nc2ccc3cc(CN4CCCC4)cnc3c2C)ccc1-c1ccc(F)cc1 | 200 to 202
15 | S=C(Nc1ccc(Cl)cc1)NC1C2CC3C(C2)C31 (stereo not drawn) | 164 to 166
16 | CCCCCCCCCCCCCCCCCCOc1cc(OC(C)=O)cc(N(CC(=O)O)CC(=O)O)c1 | 122 to 127
17 | Fc1ccc(-c2cnn3cnnc3n2)cc1 | > 300
18 | Cc1ccc(Cc2cnc(Cl)nc2OC(C)C)cn1 | 38 to 42
19 | CCOC(=O)CON(C)C(=S)Nc1ccc(Cl)cc1C | 104 to 106
20 | CCOc1c(C#N)c(C#N)c(OCC)c2ccccc12 | 167
21 | CC(C)(C)NC(=O)NC(Cc1ccccc1)C(=O)Nc1c(F)cc(F)cc1F (stereo not drawn) | 205 to 206
22 | OC1(CCc2ccccc2)CCOCC1 | 74 to 75
23 | Nc1nc(=O)n(C2CC(O)C(CNC(=O)Cc3ccccc3Br)O2)cc1Br (stereo not drawn) | 164 to 167
24 | CC(=NOCCOc1ccc(CC2SC(=O)N(C(c3ccccc3)(c3ccccc3)c3ccccc3)C2=O)cc1)c1ccc(-c2ccccc2)nc1 (stereo not drawn) | 186 to 187
25 | O=C(O)c1cnc(-c2ccccc2OCC2CC2)[nH]c1=O | 219 to 220
26 | C=Cc1cc(CNC(=O)C(C)=Cc2ccc(C(C)(C)C)cc2)cc(F)c1NS(C)(=O)=O | 136 to 138

Row | SMILES | melting point [°C]
27 | CN(Cc1ccc(N)cc1)C1CCSCC1 | 88 to 89
28 | CS(=O)(=O)OCc1cc(-c2ccc3occc3c2)nn(Cc2ccc(F)cc2)c1=O | 162 to 165
29 | COC(=O)c1csc(-c2ccc(C#N)cc2)n1 | 107 to 108
30 | Oc1ccc(-c2cc(F)c3cc(O)ccc3c2)cc1 | 236 to 238
31 | CCN(Cc1cccs1)C(=O)C12CC3CC(CC(C3)C1)C2 | 103 to 105
32 | Cc1ccc(C(=O)Nc2ccc3c(c2NC(=O)c2ccc(C)cc2)C(=O)c2ccccc2C3=O)cc1 | 227 to 229
33 | Cc1cc(OCc2ncc([N+](=O)[O-])n2C)ccc1S(C)=O (stereo not drawn) | 121
34 | c1ccn2nc(-c3ccncc3)nc2c1 | 188 to 190
35 | CC(C)(SC(=S)c1ccccc1)c1ccc(Cl)cc1 | 77 to 78
36 | CNCCN(C)C(=O)OC(Cc1ccccc1)C(=O)N(C)C(Cc1c[nH]cn1)C(=O)NC(CC1CCCCC1)C(O)CCC(C)C (stereo not drawn) | 65 to 68
37 | CC(Cl)OC(=O)Oc1c(Br)cc(C#N)cc1Br (stereo not drawn) | 91 to 93
38 | COC(=O)Nc1cc(O)c(Cl)cc1F | 140 to 141
39 | CCOC(=O)c1c(-c2ccccc2)c2c3ccccc3ccn2c1C(C)C | 82 to 84
40 | N#Cc1ccc(-c2cn3cc(Br)ccc3n2)cc1 | 218 to 219
41 | Cc1ccccc1NC(=O)CN1CC2CCC(C1)N2S(=O)(=O)c1cccc(C#N)c1 | 166 to 168
42 | CC(C)(C)c1ccc(S(=O)(=O)Nc2nc(-c3ncccn3)nc(Cl)c2-c2cccs2)cc1 | 130 to 132
43 | CCN1C(=O)C(C(=O)Nc2cccc(C(=O)Nc3ccc(Br)cc3)c2)c2cc(C(C)=O)ccc21 (stereo not drawn) | 117 to 120
44 | Nc1nc(-c2cc(Cl)ccc2Cl)nc(N2CCNCC2)n1 | 163 to 165
45 | COC(=O)COc1ccc(NC(=O)CCc2ccc(C#N)cc2)cc1 | 141
46 | Cc1ccc(C(=O)c2[nH]c3ccc(Cl)cc3c2CC(=O)O)nc1 | 247 to 248
47 | N#Cc1cc(Br)c2c(c1)N(C1CC1)CNS2(=O)=O | 250 to 253
48 | CC(C)C(c1cncnc1C(F)(F)F)N(C)C(=O)N(C)Cc1ccc(Cl)cc1 (stereo not drawn) | 95 to 98
49 | CCCCCCCCCCCCc1cc(C)on1 | 35 to 38
50 | CCCCC(=O)NNC(=O)c1ccc([N+](=O)[O-])cc1 | 185 to 187
51 | COc1ccc2[nH]c(C)cc2c1O | 118 to 119
52 | CCCN1CCC(c2ccccc2)=C(C(=O)NCC)C1 | 80 to 83

Row | SMILES | melting point [°C]
53 | COC(=O)C(C=CC(=O)O)=CNc1ccc(Cl)cc1 | 160 to 161
54 | Oc1ccc(C2CCOCC2)cc1 | 164
55 | COc1cc(C)c2c(c1)CCN2c1nc(Cl)cn(CCSC)c1=O | 111 to 113
56 | N#CC1(C(O)(Cn2cncn2)c2ccccc2)CC1 (stereo not drawn) | 103 to 105
57 | CCOC(=O)c1cc2cccnc2[nH]1 | 153 to 156
58 | CC(C)=CCOc1ccc(C(=O)C=Cc2ccccc2)c(O)c1 | 164 to 166
59 | CC(=O)Nc1c(I)c(C(=O)O)c(I)c(C(=O)NCC(=O)O)c1I | 201 to 202
60 | N#CC(C=O)=Cc1ccsc1 | 123 to 124
61 | O=C(NNc1ccccc1)c1nc(Cl)c(Cl)[nH]1 | 229 to 230
62 | Nc1ccc2oc(-c3cccc(O)c3)cc(=O)c2c1 | 157 to 159
63 | FC(F)(F)Oc1ccc(-c2coc3ccc(-c4nnc(N5CCNCC5)o4)cc23)cc1 | 138 to 140
64 | CC(C#Cc1ccc(Br)cc1)N(O)C(N)=O (stereo not drawn) | 155 to 157
65 | CNC(=O)C1CN(CC(=O)Nc2c(C)cc(C)cc2C)CCN1CCCC(c1ccc(F)cc1)c1ccc(F)cc1 (stereo not drawn) | 82.3
66 | CC(=O)c1cccc2ccc(CC#N)cc12 | 88
67 | CCCCCCCNC(=O)Nc1cccc(-c2ccc(C=C(OC)C(=O)O)cc2OCCCC)c1 | 137
68 | COc1nc2ccccn2c(=O)c1-c1ccc(NC2CCN(C(=O)OC(C)(C)C)C2)cc1 (stereo not drawn) | 102 to 104
69 | CCOC(=O)C1CSC(c2nsc3ccc(-n4c(=O)cc(C(F)(F)F)n(C)c4=O)cc23)N1 (stereo not drawn) | 97 to 98
70 | COc1ccc(-c2c3c(cc4ccc(OC(C)C)cc24)C(=O)NC3)cc1 | 212 to 215
71 | OC(c1ccc(Cl)cc1)(c1ccc(Cl)cc1)c1cn[nH]c1 | 135 to 137
72 | O=C1OC(CCO)c2ccccc21 (stereo not drawn) | 122 to 124
73 | CS(=O)(=O)c1ccc(C2SCC(=O)N2c2ccc(Cl)cc2)cc1 (stereo not drawn) | 231 to 233
74 | O=C1CCC2=C1C(c1ccc(F)c(C(F)(F)F)c1)C1=C(CCS1)N2 (stereo not drawn) | 254
75 | COc1cc(OC)nc(C(O)(C(=O)NS(C)(=O)=O)c2ccccc2)n1 (stereo not drawn) | 94 to 96
76 | COC(=O)C(C)NC(=O)C1C(C)(C)CCC1(C)C (stereo not drawn) | 86.7
77 | COc1ccc(-c2nc(-c3c[nH]c4ccccc34)[nH]c2-c2ccc(OC)cc2)cc1 | 246
78 | CCOC(=O)C=Cc1ccc(F)c([N+](=O)[O-])c1 | 115 to 117

Row | SMILES | melting point [°C]
79 | Cc1nc2c(Cl)nccc2n1C | 197 to 198
80 | COc1ccc(S(=O)(=O)NC(=O)c2ccc(C(=O)NCCO)nc2)cc1 | 221 to 223
81 | CCN(CC)c1ccc(CNc2cc(C(=O)Nc3ccc(F)c(F)c3)ccc2OC)cc1 | 165 to 167
82 | CCOc1nn(-c2ccc(C(F)(F)F)cn2)cc1CCCOc1c(CCC(=O)O)cccc1OC | 87 to 88
83 | O=c1n(CCCCN2CCC(n3c(=O)[nH]c4ccccc43)CC2)nc2n1-c1ccccc1OC2 | 173 to 176
84 | O=C1NC(=O)C(c2cn3c4c(cccc24)CCC3)C1c1ccc(O)cc1 (stereo not drawn) | 105 to 107
85 | CN1C(NCc2ccccc2)=Nc2ccncc2S1(=O)=O | 142 to 146
86 | CCNC(=O)C1=C([Si](C)(C)C)S(=O)(=O)c2ccccc21 | 135 to 148
87 | O=C(Nc1cccc(S(=O)(=O)N2CCCC2)c1)c1cnn2c(C(F)F)cc(-c3ccc(Cl)c(Cl)c3)nc12 | 245
88 | NS(=O)(=O)c1ccc(-n2cc(C(F)(F)F)nc2-c2ccc(-c3cscn3)cc2)cc1F | 130 to 133
89 | COC(=O)c1cc([N+](=O)[O-])ccc1ON=C(C)c1ccccc1 | 108 to 110
90 | COCCOc1cc2ncnc(NC3=CC(=O)C(Br)=CC3=O)c2cc1OC | 200 to 210
91 | CCOC(=O)CCNC(=O)CCNC(=O)c1csc(NC(=N)N)n1 | 154 to 157
92 | CN1CC=C(c2c[nH]c3ccc(N)cc23)CC1 | 200 to 203
93 | c1ccc(C(CCCc2c[nH]cn2)c2ccccc2)cc1 | 204 to 206
94 | CS(=O)(=O)Cc1cccc(C(F)(F)F)c1N | 96 to 98
95 | Cc1ccc(Oc2cccc(CC(=O)O)c2N)cc1C | 90 to 92
96 | Fc1ccc(Nc2nc(NCc3ccc(Cl)nc3)nc(NN=Cc3ccc(OC(F)(F)F)cc3)n2)cc1C(F)(F)F | 117 to 125
97 | CCOC(=O)c1cc(NCc2ccccc2)c(Nc2ccccc2)c(S(=O)(=O)Nc2ccccc2)c1 | 166 to 167
98 | COc1nc(C)c(C)nc1N(C)C(=O)N1CCN(c2cc(F)cc(F)c2)CC1 | 104 to 106
99 | COCCCn1c(COc2ccccc2)nc2c(N)nc3ccccc3c21 | 152
100 | COc1cc(-c2ccc([N+](=O)[O-])cn2)cc(OC)c1OC | 134 to 136
101 | CN(C)C(=O)c1cn(C)c(=O)cc1Nc1ccc(I)cc1F | 106 to 111
102 | Cc1ccc2c(c1)C=Cn1c(nnc1S(C)=O)C2 (stereo not drawn) | 158 to 159
103 | CCCc1nc(C(OCC)OCC)cc(NC(c2ccccc2)(c2ccccc2)c2ccccc2)c1F | 111 to 112
